Key:
rice [1] = experiment: Root growth-promoting activity using rice, soil drenching (Example 14); format: in vivo, Oriza sativa japonica Nipponbare; conditions: soil drenched with 10 ppm solution, 500 μl per well
Protocol: With respect to the chemical substance Ic3-3, a root growth promoting activity was measured using rice (Oriza sativa japonica Nipponbare).
First, an acetone solution containing a predetermined concentration of the chemical substance was prepared and then 100-fold diluted with distilled water to 10 ppm (containing 1% acetone) to obtain a chemical substance solution. Seeds were immersed in water for 2 days to stimulate germination. The seeds were sowed in a 288-well plug tray (3 seeds per well), and then soil was drenched with the above chemical substance solution in an amount of 500 μl per well. After covering with soil, the plug tray was put in a plastic bag and then placed in an air-conditioned room (dark place at 30° C.) for 3 days. After removing the plastic bag from the plug tray, the plug tray was placed under light conditions of light/dark=16 h/8 h for 4 days while the bottom was irrigated at all times. Thus, rice seeds were cultivated to obtain grown rice. The resulting rice roots were washed and the total root length was analyzed using a root length measurement image analyzer WinRHIZO (manufactured by Regent Instruments).

[2] = tested on: transformed cell TM182-p415CYC1; experiment: Control growth test with transformed yeast cell TM182-p415CYC1 (toxicity to yeast); format: cell-based; conditions: trans-zeatin 0.6 ppm; chemical substance 2 ppm; 30° C., 24 hours; turbidity OD 600
In short: (§1)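 Yeast TM182-CRE1 (DOLU+Glu) or control TM182-p415CYC1 (DOLU+Gal), after 18 h preculture at 30° C and dilution to OD600=0.1, exposed to compound at 2 ppm plus trans-zeatin 0.6 ppm for 24 h at 30° C. OD600 vs DMSO control, blank-corrected; inhibition = 100 − relative growth %.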

cytokinin receptor CRE1 = target: T1, cytokinin receptor CRE1 (Arabidopsis thaliana, UniProt Q9C5U0, S567G/T1018A); experiment: Inhibition of intracellular signaling from plant-derived cytokinin receptor, growth of transformed yeast cell TM182-CRE1; format: cell-based; conditions: trans-zeatin 0.6 ppm, chemical substance 2 ppm
T1 construct: expressed in transfected cells; host or cells: Saccharomyces cerevisiae TM182 (sln1Δ) transformed with p415CYC-CRE1
In short: as §1

Arabidopsis thaliana = experiment: Root growth-promoting activity test (Example 9); format: in vivo; conditions: test final concentration 5 ppm (concentration with highest root growth rate); main root length vs control section, 22° C., 10 days
In short: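 Arabidopsis seeds (10–20 per tube) were grown in Enshi standard medium containing the compound from DMSO at 0.001–10 ppm final, at 22° C in light for 10 days. Main root length was averaged over eight repeats and expressed as % of the control.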

rice [3] = experiment: Rice stand establishment-promoting activity by seed treatment, direct seeding on flooded field (Example 20); format: in vivo, Oryza sativa japonica Nipponbare; conditions: for Stand establishment rate (%) on day 23 after sowing: Blank slurry 76.7
Protocol: Seeds of rice (Oryza sativa japonica Nipponbare) were treated with the chemical substance Ic3-1 (which inhibits intracellular signaling from a plant-derived cytokinin receptor of a cell) selected in Example 7, and were grown under direct seeding conditions. Then, a stand establishment rate was examined, and thus a rice stand establishment-promoting activity of the chemical substance was evaluated.
First, a Blank slurry solution containing 5% (v/v) Color Coat Red (manufactured by BECKER UNDERWOOD), 5% (v/v) CF-Clear (manufactured by BECKER UNDERWOOD) and 0.42% (v/v) Maxim-XL (manufactured by Syngenta) was prepared. In 1.3 ml of the Blank slurry solution, 6.25 mg, 12.5 mg, 25 mg or 50 mg of the chemical substance Ic3-3 was dissolved. Seeds were treated with the solution in an amount of 1.3 ml per 50 g of seeds (each corresponding to 0.125 mg, 0.25 mg, 0.5 mg and 1 mg/g seed) using a Hege11 seed treating device (manufactured by Hans-Ulrich Hege).
Then, a concrete pot (50 cm×50 cm) placed outdoors was flooded at a flooding depth of 5 cm, and 50 seeds per pot were sown. On day 23 after sowing, the number of seedlings whose leaf apex appeared on the water surface was examined. […] [Stand establishment rate (%)]=[Number of seedlings whose leaf apex appears on the water surface]/[Number of sown seeds]×100

rice [4] = experiment: Rice tillering-promoting activity by seed treatment, direct seeding on dry field (Example 21); format: in vivo, Oryza sativa japonica Nipponbare; conditions: seed treatment 0.25 mg/g seed; day 30 after sowing
Protocol: Seeds of rice (Oryza sativa japonica Nipponbare) were treated with the chemical substance Ic3-1 (which inhibits intracellular signaling from a plant-derived cytokinin receptor of a cell) selected in Example 7, and were grown under direct seeding on dry field-conditions. Then, the number of tillers was examined, and thus a tillering-promoting activity of the chemical substance was evaluated.
First, a Blank slurry solution containing 5% (v/v) Color Coat Red (manufactured by BECKER UNDERWOOD), 5% (v/v) CF-Clear (manufactured by BECKER UNDERWOOD) and 0.42% (v/v) Maxim-XL (manufactured by Syngenta) was prepared. In 1.3 ml of the Blank slurry solution, 12.5 mg of the chemical substance Ic3-3 was dissolved. Seeds were treated with the solution in an amount of 1.3 ml per 50 g of seeds (corresponding to 0.25 mg/g seed) using a Hege11 seed treating device (manufactured by Hans-Ulrich Hege).
The, 20 seeds per pot of the treated seeds were sown in a 1/5000a Wagner pot at a depth of 1 cm and then cultured in a greenhouse. On day 10 after sowing, water was charged at a flooding depth of 5 cm and culture was continued. On day 30 after sowing, the number of tillers was examined.

T1 sequence (Q9C5U0 24-1080 S567G/T1018A): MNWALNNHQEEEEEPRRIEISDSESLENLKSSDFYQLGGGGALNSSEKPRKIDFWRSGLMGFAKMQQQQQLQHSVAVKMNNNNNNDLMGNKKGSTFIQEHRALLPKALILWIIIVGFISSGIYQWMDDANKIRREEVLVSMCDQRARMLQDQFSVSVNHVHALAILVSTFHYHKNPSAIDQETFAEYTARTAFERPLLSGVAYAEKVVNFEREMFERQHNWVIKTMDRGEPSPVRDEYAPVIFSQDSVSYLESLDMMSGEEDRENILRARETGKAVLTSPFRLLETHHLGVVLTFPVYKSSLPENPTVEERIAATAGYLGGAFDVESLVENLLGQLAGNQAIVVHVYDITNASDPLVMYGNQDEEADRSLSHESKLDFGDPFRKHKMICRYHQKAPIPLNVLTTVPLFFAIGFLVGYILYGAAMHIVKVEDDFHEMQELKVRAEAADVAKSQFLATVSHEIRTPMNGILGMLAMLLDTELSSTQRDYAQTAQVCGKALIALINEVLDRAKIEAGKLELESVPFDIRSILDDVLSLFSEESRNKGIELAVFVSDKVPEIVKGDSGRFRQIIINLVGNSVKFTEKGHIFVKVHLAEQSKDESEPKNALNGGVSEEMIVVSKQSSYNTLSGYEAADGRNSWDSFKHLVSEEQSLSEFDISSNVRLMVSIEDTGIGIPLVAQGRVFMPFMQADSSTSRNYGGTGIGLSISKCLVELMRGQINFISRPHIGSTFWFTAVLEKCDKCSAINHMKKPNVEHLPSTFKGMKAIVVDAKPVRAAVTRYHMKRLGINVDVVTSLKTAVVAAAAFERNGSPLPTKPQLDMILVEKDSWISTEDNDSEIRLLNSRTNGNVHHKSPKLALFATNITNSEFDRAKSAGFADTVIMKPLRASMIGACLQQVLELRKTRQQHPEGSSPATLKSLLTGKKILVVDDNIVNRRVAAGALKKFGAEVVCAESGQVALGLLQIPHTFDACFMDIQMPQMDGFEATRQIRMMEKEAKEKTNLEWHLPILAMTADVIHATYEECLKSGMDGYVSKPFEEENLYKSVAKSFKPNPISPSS

SMILES: OCCCNc1nc(-c2ccccc2)c2cc(Cl)ccc2n1 [Ic3-3]
- root growth compared with the control section (UTC) (rice [1]): root growth was remarkably promoted
- total root length (image analyzer WinRHIZO) (rice [1]): an increase of the total root length
- Relative growth rate (%) in test section of test substance to control section, Transformed cell TM182-p415CYC1 [2]: 108.6%
- Relative growth rate (%) in test section of test substance to control section, Transformed cell TM182-CRE1 (cytokinin receptor CRE1; 30° C., 24 hours, turbidity OD 600): 1.4%
- Activity (%) of test substance for inhibiting intracellular signaling from plant-derived cytokinin receptor of cell (cytokinin receptor CRE1; = 100 − relative growth rate of TM182-CRE1): 98.6%
- Root growth-promoting activity (root growth rate) (Arabidopsis thaliana): 163.4%
- Stand establishment rate (%) on day 23 after sowing (rice [3]; seed treatment 0.125 mg/g seed): 87.3%
- Stand establishment rate (%) on day 23 after sowing (rice [3]; seed treatment 0.25 mg/g seed): 82.7%
- Stand establishment rate (%) on day 23 after sowing (rice [3]; seed treatment 0.5 mg/g seed): 79.3%
- Stand establishment rate (%) on day 23 after sowing (rice [3]; seed treatment 1 mg/g seed): 84.0%
- stand establishment rate compared with the Blank slurry-treated section (rice [3]; seed treatment concentration 0.125 to 1 mg/g seed, day 23 after sowing): a stand establishment rate was increased
- number of tillers per stock compared with the Blank slurry-treated section (rice [4]): the number of tillers per stock was increased

From patent US8722580B2, “Agent for inhibiting cytokinin signaling” (Sumitomo Chemical Company, Limited, priority 2006, dated 2014)
